“Also recorded” adds a separate entry of the source.
Experiments:
Format in all cases: cell-based
breast cancer cell lines = tested on: breast cancer cell lines
From the text: Dyngo4a, a small molecule inhibitor of dynamin, was used to block dynamin-mediated endocytosis (Mccluskey et al., 2013) and added into the immune-dependent cytotoxicity assays. […] However, the specific cell death of BT474 cells was not enhanced following treatment with Dyngo4a (FIG. 4C).

[1] = tested on: Cetuximab-sensitive or resistant cell lines; experiment: ADCC in response to Cetuximab with endocytosis inhibitors; conditions: either Cetuximab-sensitive or resistant cell lines
Method: If only the plasma membrane levels of HER1 determine ADCC response then we would expect that any pharmacological blockade of HER1 internalization would be expected to enhance ADCC. Thus, numerous endocytosis inhibitors were tested to investigate this hypothesis.

A431 cells = experiment: EGF-Alexa488 uptake and clathrin localisation, confocal and 3D-SIM super-resolution microscopy; conditions: for Internalization of EGF-Alexa488: 30 min drug, EGF-Alexa488 last five minutes, confocal, FIG. 7A-C; for Clathrin recruitment to the plasma membrane: 3D-SIM volume projections, FIG. 7G-I; for Effect on HER1 (EGFR) at the plasma membrane: Pitstop-2 30 μM or chlorpromazine 18 μM, 30 min
Method: To discuss the experiments in more detail, A431 cells were incubated in serum-free medium with no drugs (control), or with Pitstop®-2 for 30 min or chlorpromazine for 30 min. During the last five minutes of treatment EGF-Alexa488 was added to monitor CME, after which cells were fixed and imaged (FIG. 7A-C).
Volume projections of a small area of the cell periphery were used to examine the recruitment of clathrin and EGF-positive sites to the cell periphery (FIG. 7G-I). The angle of 3D projection was chosen to show the upper surface of the cell plasma membrane. Points of co-localisation between EGF-Alexa^488 and Alexa^594-conjugated antibodies (which detects clathrin) are rare in 3D-SIM due to the capture of frequency information differences between the 488 and 594 excitation/emission spectra. […] A clathrin punctum was defined as being recruited an HER1-positive site when there was 50 nm or less distance between the clathrin and EGF puncta.
A431 cells were seeded on coverslips in 12-well plates and incubated overnight to reach 80% confluence for super-resolution microscopy based on structured illumination. After a 3 hour-serum starvation the cells were treated with 30 μM of Pitstop®-2 or 18 μM chlorpromazine for 30 min, followed by 5 min uptake with EGF-Alexa488 (100 ng/ml). The uptake of EGF was stopped by washing three times in ice cold PBS. The cells were fixed in 4% paraformaldehyde/phosphate-buffered saline for 30 min and washed three times in phosphate-buffered saline before DAPI staining for 30 min. The coverslips were mounted on slides in Prolong Gold (Life technologies) for confocal analysis or glycerol-based imaging media for three dimensional structured illumination microscopy (3D-SIM). Confocal images were acquired using a Zeiss 510 Meta confocal with a 63 Å˜ objective. Reconstructing the subsequent images after modulating the illumination pattern produces super-resolution images with double the lateral and axial resolution and up to 10 μm into the cell. 3D-SIM images were captured on a Deltavision OMX V3 Imaging System (Applied Precision), EMCCD cameras (CascadeII 512×512 Photometrics) and using a 60×1.4-NA UPlanSApo oil-immersion objective (Olympus) with oil of a refractive index of 1.518. […] Images were computationally reconstructed using Deltavision SoftWorX6.0 Beta 19 software (Applied Precision).

| Structure (SMILES) | Toxicity of Dyngo4a (breast cancer cell lines) | Effect on ADCC in response to Cetuximab [1] | Internalization of EGF-Alexa488 (A431 cells; A431 cells) | Clathrin recruitment to the plasma membrane (A431 cells; A431 cells) | Inhibition of CCV (clathrin coated vesicle) formation (A431 cells; A431 cells, confocal and 3D-SIM) | Effect on HER1 (EGFR) at the plasma membrane (A431 cells) |
| --- | --- | --- | --- | --- | --- | --- |
| O=C(N/N=C/c1cc(O)c(O)cc1O)c1cc2ccccc2cc1O [Dyngo4a] | non-toxic | – | – | – | – | – |
| O=C1NC(=NS(=O)(=O)c2cccc3ccccc23)S/C1=C\c1ccc(Br)cc1 [Pitstop®-2] | – | did not increase ADCC | no internalization | clathrin was not recruited | inhibits CCV formation | caused HER1 to be trapped on the plasma membrane |
| CN(C)CCCN1c2ccccc2Sc2ccc(Cl)cc21 [chlorpromazine] | – | – | no internalization | does not inhibit clathrin recruitment | – | clustering and recruitment of HER1 into CCVs; also recorded: abundant EGFR was trapped at the cell membrane |
